In US20260007758A1, “SO[…]-2 RECEPTOR (SST2R) NON-PEPTIDE DRUG CONJUGATES AND USES THEREOF” (Crinetics Pharmaceuticals, Inc., priority 2024, published 2026) one finds EC50 data, which are given here for 11 molecules.

SMILES strings stand for the structures.

Holding throughout (format): cell-based
Test [1] concerns the target T1, human somatostatin receptor subtype 2 (Homo sapiens, UniProt P30874).
T1 construct: expressed in transfected cells
Description: Functional assay for SSTR2 agonists (HTRF cAMP). The settings on record: CHO-K1 cells stably expressing human SST2; NKH477-stimulated cAMP; 20 min at 37 C; read-out: hSST2 cAMP Avg EC50. The gist of the method:
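CHO-K1 cells stably expressing human SSTR2 treated with compound (typically 0-10,000 nM final) for 20 min at 37 °C. Lysate cAMP measured by HTRF (665/620 nm ratio), converted via standard curve; EC50 from cAMP vs concentration.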

Test [2] relates to NCI-H524 human small cell lung cancer cells. Description: H524 assay: inhibition of cell proliferation (CellTiter Glo). To be noted: 2 h treatment, washout, additional 70 h incubation. The method, boiled down:
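NCI-H524 cells were exposed for 2 h to NDC in an 11-point two-fold series starting at 1 uM. The drug was then washed out and cells grew a further 70 h. CellTiter Glo luminescence gave % inhibition versus untreated control, and IC50 came from a four-parameter nonlinear regression.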
On the technique in general: Cellular ATP, detected with luciferase, serves as a proxy for viable cell number.

The target in test [3] is T2, SST2 (Homo sapiens, UniProt P30874).
T2 construct: host or cells: PathHunter CHO-K1 SST2 cells
T2 sequence (P30874 whole entry): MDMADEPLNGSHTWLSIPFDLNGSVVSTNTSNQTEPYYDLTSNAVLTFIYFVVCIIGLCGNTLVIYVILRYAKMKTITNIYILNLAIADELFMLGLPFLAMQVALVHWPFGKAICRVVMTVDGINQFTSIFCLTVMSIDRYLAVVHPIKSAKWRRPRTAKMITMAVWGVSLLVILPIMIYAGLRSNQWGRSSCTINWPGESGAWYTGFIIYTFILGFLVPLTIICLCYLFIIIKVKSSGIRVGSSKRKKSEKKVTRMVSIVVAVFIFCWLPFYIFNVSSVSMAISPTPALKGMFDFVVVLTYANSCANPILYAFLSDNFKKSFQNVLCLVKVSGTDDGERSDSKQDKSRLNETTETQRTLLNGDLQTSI
Nature of the test: PathHunter CHO-K1 SST2 Internalization Assay. The settings on record: PathHunter CHO-K1 SST2 cells; 90 min at 37 C; luminescence; read-out: Internalization EC50. The method, boiled down: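 CHO-K1 cells expressing human SST2, 2500 cells/well, grown 48 h, then exposed 90 min at 37 C to 11-point 1:3 NDC dilutions (final top 10 uM). Beta-Glo luminescence after 60 min at room temperature; four-parameter IC50, duplicate mean, background-corrected.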

T1 sequence (P30874 whole entry): as above

`CC[C@H](C)[C@@H]([C@@H](CC(=O)N1CCC[C@H]1[C@H](OC)[C@@H](C)C(=O)N[C@H](C)[C@@H](O)c1ccccc1)OC)N(C)C(=O)[C@@H](NC(=O)[C@H](C(C)C)N(C)C(=O)OCc1ccc(NC(=O)[C@H](CCCNC(N)=O)NC(=O)[C@@H](NC(=O)[C@H](CCC(=O)O)NC(=O)CCOCCC(=O)NCCNc2ncc(-c3cc(C)cc(F)c3)c(N3CCC(N)CC3)c2-c2nc3ccc(Cl)cc3[nH]2)C(C)C)c(OCCN)c1)C(C)C` [Compound 1]: the results for the EC50 in test [1], in test [2] and in test [3] were 0.25 nM, 15 nM and 18 nM, respectively.
For the molecule `CC[C@H](C)[C@@H]([C@@H](CC(=O)N1CCC[C@H]1[C@H](OC)[C@@H](C)C(=O)N[C@H](C)[C@@H](O)c1ccccc1)OC)N(C)C(=O)[C@@H](NC(=O)[C@H](C(C)C)N(C)C(=O)OCc1ccc(NC(=O)[C@H](C)NC(=O)[C@@H](NC(=O)C[C@@H](N)C(=O)NCCOCCC(=O)NCCNc2ncc(-c3cc(C)cc(F)c3)c(N3CCC(NC)CC3)c2-c2nc3ccc(Cl)cc3[nH]2)C(C)C)c(O[C@@H]2O[C@H](C(=O)O)[C@@H](O)[C@H](O)[C@H]2O)c1)C(C)C` [Compound 120], the EC50 (in general, the concentration at which the effect is half-maximal) in test [1] stood at 0.088 nM; in test [2] it was 20 nM; in test [3], 5.2 nM.
With `CC[C@H](C)[C@@H]([C@@H](CC(=O)N1CCC[C@H]1[C@H](OC)[C@@H](C)C(=O)N[C@H](C)[C@@H](O)c1ccccc1)OC)N(C)C(=O)[C@@H](NC(=O)[C@H](C(C)C)N(C)C(=O)OCc1ccc(NC(=O)[C@H](C)NC(=O)[C@@H](NC(=O)CCOCCn2cc(CCC(=O)NCCNc3ncc(-c4cc(C)cc(F)c4)c(N4CCC(N)CC4)c3-c3nc4ccc(Cl)cc4[nH]3)nn2)C(C)C)c(O[C@@H]2O[C@H](C(=O)O)[C@@H](O)[C@H](O)[C@H]2O)c1)C(C)C` [Compound 141], the EC50 was determined as 0.1 nM in test [1], 20 nM in test [2] and 8.8 nM in test [3].
Take `CC[C@H](C)[C@@H]([C@@H](CC(=O)N1CCC[C@H]1[C@H](OC)[C@@H](C)C(=O)N[C@H](C)[C@@H](O)c1ccccc1)OC)N(C)C(=O)[C@@H](NC(=O)[C@H](C(C)C)N(C)C(=O)OCc1ccc(NC(=O)[C@H](CCCNC(N)=O)NC(=O)[C@@H](NC(=O)[C@H](Cc2c[nH]cn2)NC(=O)CCOCCC(=O)NCCNc2ncc(-c3cc(C)cc(F)c3)c(N3CCC(N)CC3)c2-c2nc3ccc(Cl)cc3[nH]2)C(C)C)c(O[C@@H]2C[C@H](C(=O)NCC(=O)O)[C@@H](O)[C@H](O)[C@H]2O)c1)C(C)C` [Compound 212]: the figures for the EC50 in test [1], in test [2] and in test [3] were 0.088 nM, 20 nM and 4.5 nM, respectively.
`CC[C@H](C)[C@@H]([C@@H](CC(=O)N1CCC[C@H]1[C@H](OC)[C@@H](C)C(=O)N[C@H](C)[C@@H](O)c1ccccc1)OC)N(C)C(=O)[C@@H](NC(=O)[C@H](C(C)C)N(C)C(=O)OCc1ccc(NC(=O)[C@H](CCCNC(N)=O)NC(=O)[C@@H](NC(=O)CCOCCC(=O)NCCNc2ncc(-c3cc(C)cc(F)c3)c(N3CCC(N)CC3)c2-c2nc3ccc(Cl)cc3[nH]2)C(C)C)c(OC)c1)C(C)C` [Compound 11]: the EC50 in test [1] came out at 0.33 nM; in test [2] it was 14 nM; in test [3], 10 nM.
Consider `CC[C@H](C)[C@@H]([C@@H](CC(=O)N1CCC[C@H]1[C@H](OC)[C@@H](C)C(=O)N[C@H](C)[C@@H](O)c1ccccc1)OC)N(C)C(=O)[C@@H](NC(=O)[C@H](C(C)C)N(C)C(=O)OCc1ccc(NC(=O)[C@H](C)NC(=O)[C@@H](NS(=O)(=O)C[C@H](C)NC(=O)CCOCCC(=O)NCCNc2ncc(-c3cc(C)cc(F)c3)c(N3CCC(N)CC3)c2-c2nc3ccc(Cl)cc3[nH]2)C(C)C)c(O[C@@H]2O[C@H](C(=O)N(C)CC(=O)O)[C@@H](O)[C@H](O)[C@H]2O)c1)C(C)C` [Compound 221], for which the EC50 in test [1] was 0.15 nM; in test [2], 27 nM; in test [3] it was 8.8 nM.
For the molecule `CC[C@H](C)[C@@H]([C@@H](CC(=O)N1CCC[C@H]1[C@H](OC)[C@@H](C)C(=O)N[C@H](C)[C@@H](O)c1ccccc1)OC)N(C)C(=O)[C@@H](NC(=O)[C@H](C(C)C)N(C)C(=O)OCc1ccc(NC(=O)[C@H](CCCNC(N)=O)NC(=O)[C@@H](NC(=O)CCCCC(=O)NCCNc2ncc(-c3cc(C)cc(F)c3)c(N3CCC(N)CC3)c2-c2nc3ccc(Cl)cc3[nH]2)C(C)C)cc1C(=O)NCC(=O)O)C(C)C` [Compound 72], the half-maximal effective concentration (EC50) was found to be 0.11 nM in test [1], 40 nM in test [2] and 4.7 nM in test [3].
For `CC[C@H](C)[C@@H]([C@@H](CC(=O)N1CCC[C@H]1[C@H](OC)[C@@H](C)C(=O)N[C@H](C)[C@@H](O)c1ccccc1)OC)N(C)C(=O)[C@@H](NC(=O)[C@H](C(C)C)N(C)C(=O)OCc1ccc(NC(=O)[C@H](CCCNC(N)=O)NC(=O)[C@@H](NC(=O)C[C@@H](N)C(=O)NCCOCCC(=O)NCCNc2ncc(-c3cc(C)cc(F)c3)c(N3CCC(N)CC3)c2-c2nc3ccc(Cl)cc3[nH]2)C(C)C)c(O[C@@H](C)C(=O)O)c1)C(C)C` [Compound 200], the EC50 came out at 0.18 nM in test [1], 23 nM in test [2] and 3.9 nM in test [3].
Consider `CC[C@H](C)[C@@H]([C@@H](CC(=O)N1CCC[C@H]1[C@H](OC)[C@@H](C)C(=O)N[C@H](C)[C@@H](O)c1ccccc1)OC)N(C)C(=O)[C@@H](NC(=O)[C@H](C(C)C)N(C)C(=O)OCc1ccc(NC(=O)[C@H](CCCNC(N)=O)NC(=O)[C@@H](NC(=O)CCOCCC(=O)NCCNc2ncc(-c3cc(C)cc(F)c3)c(N3CCC(N)CC3)c2-c2nc3ccc(Cl)cc3[nH]2)C(C)C)c(O[C@@H]2O[C@H](C(=O)N(C)CCS(=O)(=O)O)[C@@H](O)[C@H](O)[C@H]2O)c1)C(C)C` [Compound 218], for which the EC50 stood at 0.07 nM in test [1], 7 nM in test [2] and 2.8 nM in test [3].
On the same counts, the results for `CC[C@H](C)[C@@H]([C@@H](CC(=O)N1CCC[C@H]1[C@H](OC)[C@@H](C)C(=O)N[C@H](C)[C@@H](O)c1ccccc1)OC)N(C)C(=O)[C@@H](NC(=O)[C@H](C(C)C)N(C)C(=O)OCc1ccc(NC(=O)[C@H](CCCNC(N)=O)NC(=O)[C@@H](NC(=O)C[C@@H](N)C(=O)NCCOCCC(=O)NCCNc2ncc(-c3cc(C)cc(F)c3)c(N3CCC(NC)CC3)c2-c2nc3cc(F)cc(OC)c3[nH]2)C(C)C)c(O[C@@H]2O[C@H](C(=O)O)[C@@H](O)[C@H](O)[C@H]2O)c1)C(C)C` [Compound 123] are 0.2 nM, 8.4 nM and 2.3 nM.
Consider `CC[C@H](C)[C@@H]([C@@H](CC(=O)N1CCC[C@H]1[C@H](OC)[C@@H](C)C(=O)N[C@H](C)[C@@H](O)c1ccccc1)OC)N(C)C(=O)[C@@H](NC(=O)[C@H](C(C)C)N(C)C(=O)OCc1ccc(NC(=O)[C@H](CCCNC(N)=O)NC(=O)[C@@H](NC(=O)c2cn(CCOCCC(=O)NCCNc3ncc(-c4cc(C)cc(F)c4)c(N4CCC(N)CC4)c3-c3nc4cc(Cl)ccc4[nH]3)nn2)C(C)C)c(O[C@@H]2O[C@H](C(=O)N3CCNCC3)[C@@H](O)[C@H](O)[C@H]2O)c1)C(C)C` [Compound 237], for which the EC50 in test [1] is 0.15 nM; in test [2] it was 8.2 nM; in test [3], 8.4 nM.
